Data on 1 molecule can be found in the NIST ThermoML archive (doi:10.1016/j.jct.2018.08.021).

A short description of this data set: osmotic coefficient (dimensionless); mn = molality of the nth substance listed, in mol/kg. The settings on record: 303.15 K, 101.3 kPa, Liquid, Vapor-pressure osmometry (Knauer K-7000).

Numbers after ± are expanded uncertainties.

In the case of `NC(=O)c1ccc[n+]([C@@H]2O[C@H](COP(=O)([O-])OP(=O)(O)OC[C@H]3O[C@@H](n4cnc5c(N)ncnc54)[C@H](O)[C@@H]3O)[C@@H](O)[C@H]2O)c1` [β-nicotinamide adenine dinucleotide] + O, the osmotic coefficient was 0.809 ± 0.064 (m1 = 0.0476), 0.804 ± 0.065 (m1 = 0.0572), 0.771 ± 0.066 (m1 = 0.0765) and 0.73 ± 0.067 (m1 = 0.0951).
